Test results as given in PubChem BioAssay AID1645862 (Buhrlage Lab, Dana-Farber Cancer Institute and Novartis …, 2021).
The source made the active and inactive calls. The rule behind the calls is not given here.

The compounds below were run against Ubiquitin carboxyl-terminal hydrolase 8 (Homo sapiens) (UniProt P40818) (assay: Ubiquitin-specific protease 8 inhibitors, concentration-effect, biochemical, validation of initial actives (AID 1645862;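 note: potency reflects inhibition of USP8 cleavage of a ubiquitin rhodamine substrate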)). Conditions: recombinant USP8 deubiquitinase activity assay.
Ubiquitin carboxyl-terminal hydrolase 8 (Homo sapiens), sequence (P40818 whole entry, looked up): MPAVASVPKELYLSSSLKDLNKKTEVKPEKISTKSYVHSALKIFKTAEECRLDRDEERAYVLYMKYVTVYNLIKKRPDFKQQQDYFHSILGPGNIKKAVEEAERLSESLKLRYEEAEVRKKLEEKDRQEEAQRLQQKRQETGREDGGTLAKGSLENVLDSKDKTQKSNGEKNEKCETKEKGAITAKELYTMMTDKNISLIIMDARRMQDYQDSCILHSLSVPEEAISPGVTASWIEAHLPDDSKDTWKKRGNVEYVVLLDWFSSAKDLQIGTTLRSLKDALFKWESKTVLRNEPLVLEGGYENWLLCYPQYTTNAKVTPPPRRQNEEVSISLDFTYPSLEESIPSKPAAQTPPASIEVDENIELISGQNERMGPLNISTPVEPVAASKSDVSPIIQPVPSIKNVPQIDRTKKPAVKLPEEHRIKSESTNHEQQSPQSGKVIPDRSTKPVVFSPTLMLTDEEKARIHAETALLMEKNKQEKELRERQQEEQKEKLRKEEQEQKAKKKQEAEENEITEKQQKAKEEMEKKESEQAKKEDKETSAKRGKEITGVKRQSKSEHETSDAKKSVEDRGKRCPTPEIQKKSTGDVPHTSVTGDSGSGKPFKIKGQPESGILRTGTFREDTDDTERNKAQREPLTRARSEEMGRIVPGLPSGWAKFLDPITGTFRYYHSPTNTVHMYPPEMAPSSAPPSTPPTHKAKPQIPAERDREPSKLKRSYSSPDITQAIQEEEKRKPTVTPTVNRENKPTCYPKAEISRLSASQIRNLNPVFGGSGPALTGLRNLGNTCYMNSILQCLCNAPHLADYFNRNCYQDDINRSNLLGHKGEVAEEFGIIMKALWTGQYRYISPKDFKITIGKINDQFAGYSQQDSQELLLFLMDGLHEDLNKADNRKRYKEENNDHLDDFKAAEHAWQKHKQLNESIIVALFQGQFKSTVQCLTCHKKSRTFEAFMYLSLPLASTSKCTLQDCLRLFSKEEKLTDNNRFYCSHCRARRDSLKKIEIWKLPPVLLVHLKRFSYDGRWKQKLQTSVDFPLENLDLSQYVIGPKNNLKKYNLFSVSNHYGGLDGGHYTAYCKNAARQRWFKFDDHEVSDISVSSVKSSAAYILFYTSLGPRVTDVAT

SMILES	IC50
Cc1ccc(CNC(=O)CCCn2c(=O)c3sccc3n(CC(=O)OCc3ccccc3)c2=O)cc1	> 40 µM (inactive)
Cc1c(C(=O)NCc2cccc(Br)c2)oc2c1-c1[nH]ncc1CC2	> 40 µM (inactive)
CC(=O)c1cccc(NC(=O)COC(=O)c2sc3cc(F)ccc3c2Cl)c1	> 40 µM (inactive)
Cc1c(-c2nn3c(-c4ccco4)nnc3s2)cccc1[N+](=O)[O-]	> 40 µM (inactive)
Cc1cccc(NC(=O)c2cc(-c3ccc(C)c(C)c3O)n[nH]2)c1	> 40 µM (inactive)
Cc1cccc(NC(=O)Nc2nnc(CC(=O)NCc3ccccc3)s2)c1	> 40 µM (inactive)
CCOCc1ccc(C(=O)N[C@H](C)c2nc3cc(-c4ccc(OC)cc4)ncn3n2)cc1	> 40 µM (inactive)
Cc1cc(C)c(NC(=O)Cn2c(SCc3cccc(F)c3)nc3cccnc32)c(C)c1	> 40 µM (inactive)
COc1ccc(-c2nc(SCC(=O)Oc3c(C)cccc3C)n3[nH]c(=O)cc3n2)cc1	18 µM
O=S(=O)(c1ccccc1Cl)N1CCN(c2ccc3nnc(-c4ccco4)n3n2)CC1	> 40 µM (inactive)
COc1ccc(C2/C(=C(\O)c3ccccc3)C(=O)C(=O)N2c2nc3ccc(F)cc3s2)cc1 (configuration not stated)	27.2 µM
O=C(Cn1cc(C(=O)C(F)(F)F)c2ccccc21)N1CCc2ccccc21	> 40 µM (inactive)
COc1ccc(CC(=O)Nc2ccccc2-c2nc3ccccc3[nH]2)cc1OC	> 40 µM (inactive)
COc1ccc(NS(=O)(=O)c2cc(NC(=O)/C=C/c3ccco3)ccc2N2CCCC2)cc1	> 40 µM (inactive)
O=C(NC1CCCCCC1)c1cccc(S(=O)(=O)Nc2cc(C(F)(F)F)ccc2Cl)c1	> 40 µM (inactive)
CCC(=O)Nc1nc2cc(NC(=O)Nc3cc(C)cc(C)c3)ccc2s1	> 40 µM (inactive)
O=C(CCCCn1c(=O)c2ccccc2n(CC(=O)Nc2ccc3c(c2)OCCO3)c1=O)NCc1ccco1	> 40 µM (inactive)
CCc1ccc(S(=O)(=O)c2cn(CC(=O)Nc3ccccc3)c3ccccc3c2=O)cc1	> 40 µM (inactive)
COc1ccc(CNC(=O)CCCc2nnc3c(=O)n(-c4cc(C)cc(C)c4)ccn23)cc1	> 40 µM (inactive)
Cc1ccccc1NC(=O)N1CCC(CC(=O)N2CCCCC2)CC1	> 40 µM (inactive)
O=C(Cn1c(=O)n(CC2CCC(C(=O)NC3CCCC3)CC2)c(=O)c2ccccc21)NCCC1=CCCCC1 (configuration not stated)	> 40 µM (inactive)

SMILES	IC50
N=C1/C(=C/c2cn(Cc3ccccc3)c3ccccc23)C(=O)N=C2SC(C(F)(F)F)=NN12	> 40 µM (inactive)
O=S(=O)(Nc1ccc(Oc2ncnc3cc(Cl)ccc23)nc1)c1ccc(S(=O)(=O)c2ccccc2)s1	> 40 µM (inactive)
Cc1nc(-c2ccccc2)sc1-c1nc(-c2ccccc2)ncc1S(=O)(=O)c1ccccc1	> 40 µM (inactive)
COc1cccc(-c2cncc(C3CCN(S(=O)(=O)N(C)C)CC3)n2)c1	> 40 µM (inactive)
O=C(CCn1c(=O)c2ccccc2n(Cc2ccccc2F)c1=O)NCc1ccco1	> 40 µM (inactive)
CCOc1ccc2c(c1)c(=O)c(C(=O)c1ccc(C)cc1)cn2CC(=O)Nc1ccc(OC)c(OC)c1	> 40 µM (inactive)
Cc1cccc(N2CCN(C(=O)c3nc4cccnc4n(C)c3=O)CC2)c1C	> 40 µM (inactive)
Cc1cc(=O)[nH]c(SCC(=O)c2cc(C)n(CCC3=CCCCC3)c2C)c1C#N	> 40 µM (inactive)
Cc1cc(C)c(NC(=O)Cc2sc(Nc3ccc(C)c(C)c3)nc2O)c(C)c1	> 40 µM (inactive)
N#Cc1ccc(NC(=O)Nc2cccn(Cc3ccc(F)cc3)c2=O)cc1	> 40 µM (inactive)
COc1cccc(NC(=O)c2oc3ccccc3c2NC(=O)COc2cccc(OC)c2)c1	> 40 µM (inactive)
Cc1cccc(NC(=O)CSc2nnc(-c3n[nH]c4c3CCC4)n2N)c1C	> 40 µM (inactive)
Cc1nc2c(-c3ccc(Cl)cc3)c[nH]n2c(=O)c1Cc1ccccc1	> 40 µM (inactive)
COc1cccc(C(=O)Nc2ccc(SC(C)C(=O)Nc3ccc(C(N)=O)cc3)cc2)c1 (configuration not stated)	> 40 µM (inactive)
COc1ccc(Cl)cc1NC(=O)COC(=O)c1cc2ccccc2oc1=O	24.2 µM
COc1ccc(C)cc1NC(=O)C1CC(=O)Nc2nc3ccccc3n21 (configuration not stated)	> 40 µM (inactive)
COc1ccc(Cn2c(=O)[nH]c3cc(C(=O)NCCCN4CCN(c5cccc(Cl)c5)CC4)ccc3c2=O)cc1	> 40 µM (inactive)
Cc1cccc(C(=O)OCC(=O)Nc2ccc3[nH]c(=O)[nH]c3c2)c1C	> 40 µM (inactive)
O=C(Nc1cc(F)c2nc(N3CCCC3)ccc2c1)c1ccco1	> 40 µM (inactive)
COc1ccc(-c2cc3nc([C@H](C)NC(=O)Cc4ccccc4C)nn3cn2)cc1	> 40 µM (inactive)
Cc1nn(-c2ccccc2)c2c1nc(CCC(=O)NC1CCCCC1)c(=O)n2C	> 40 µM (inactive)

SMILES	IC50
CCCCCCCc1cc(OC(=O)c2c(CCCCCCC)cc(O)cc2O[C@@H]2O[C@H](CO)[C@H](O)[C@H](O)[C@H]2O)cc(O)c1C(=O)O	9.43 µM
O=C(Cn1c(=O)n(CCC(=O)N2CCc3ccccc3C2)c(=O)c2ccccc21)NCc1ccccc1Cl	> 40 µM (inactive)
Cc1ccc(CNC(=O)c2cccc(N3C(=O)N4CCc5c([nH]c6ccccc56)[C@@]4(C)C3=O)c2)cc1	> 40 µM (inactive)
CC(=O)Nc1cccc(-c2cnc3sc(NC4CCCCC4)nn23)c1	> 40 µM (inactive)
O=C(Nc1cccc2ccccc12)N1CCC(c2nc3c(nnn3Cc3ccc(F)cc3)c(=O)[nH]2)CC1	> 40 µM (inactive)
COc1cc2c(c(OC)c1OC)-c1ccc(NCCc3cccc(F)c3)c(=O)cc1[C@@H](NC(C)=O)CC2	> 40 µM (inactive)
COC(=O)c1ccccc1NC(=O)Cn1c(=O)n(Cc2ccc(C(=O)NCc3ccco3)cc2)c(=O)c2ccccc21	> 40 µM (inactive)
COc1ccc(-c2noc(C3(c4ccc(F)cc4)CCOCC3)n2)cc1	> 40 µM (inactive)
COc1ccc(CCNC(=O)Cn2c(=O)n(-c3ccc(CC(=O)NCCc4ccccc4)cc3)c(=O)c3ccccc32)cc1OC	> 40 µM (inactive)
CC(=O)CSc1nc2sc3c(c2c(=O)n1-c1ccccc1)CCCC3	> 40 µM (inactive)
Cc1ccc(Nc2nc(O)c(CC(=O)Nc3ccc(C)cc3C)s2)cc1	> 40 µM (inactive)
CCOc1ccc2c(c1)c(=O)c(C(=O)c1ccccc1)cn2CC(=O)Nc1ccccc1	> 40 µM (inactive)
c1ccc2sc(-c3csc(-c4ccc5c(c4)OCCO5)n3)nc2c1	> 40 µM (inactive)
Cc1ccc2nc(CNc3ccc(F)cc3C)cc(=O)n2c1	> 40 µM (inactive)
CN(C)[C@@H]1C(=O)C(C(N)=O)=C(O)[C@@]2(O)C(=O)C3=C(O)c4c(O)cccc4[C@@](C)(O)C3[C@H](O)[C@@H]12 (some centres not stated)	0.702 µM
COc1ccc(CCNC(=O)Cn2c(=O)c3sccc3n(Cc3cccc([N+](=O)[O-])c3)c2=O)cc1OC	> 40 µM (inactive)
O=c1[nH]c(C2CCN(S(=O)(=O)c3ccc(S(=O)(=O)NC4CCCCC4)cc3)CC2)nc2c1nnn2Cc1c(F)cccc1Cl	> 40 µM (inactive)
Cc1cc2nc(SCC(=O)c3ccc(O)cc3)[nH]c2cc1C	> 40 µM (inactive)
COc1ccc(NC(=O)Cn2c(=O)n(Cc3ccco3)c(=O)c3ccc(C(=O)NC4CCCC4)cc32)cc1	> 40 µM (inactive)
Cc1cccc(C(=O)OCC(=O)Nc2ccc3[nH]c(=O)[nH]c3c2)c1	> 40 µM (inactive)
